Experimental data from patent US7696194B2, “Visual function disorder improving agents” (Senju Pharmaceutical Co., Ltd., priority 2001, dated 2010).
Counter-ions that a name gives are not always drawn.

How the values were obtained:
retinal ganglion cell [1] = test: In vitro extension of nerve axon of cultured retinal ganglion cells (Example 3); format: cell-based, Wistar rat
Method: Retinal ganglion cells were isolated from an eye ball of a Wistar rat and cultured in a 48 well plate coated with polylysine (50 μg/mL, Sigma) and merosin (2 μg/mL, GIBGO) at 37° C. under the environment of 5% CO2, 95% air. The number of cells was about 5000 cells/well. The culture solution was a culture solution (FCS-free culture solution) of Neurobasal Medium (GIBCO) supplemented with 50 ng/mL BDNF (human brain-derived neurotrophic factor, Sigma), 50 ng/mL CNTF (rat cilliary neurotrophic factor, Sigma), 5 μM forskolin (Sigma), 1 mM glutamine (Wako) and B27 Supplement (GIBCO; 1 mL/50 mL culture solution). After culture for 24 hrs in a culture solution of the aforementioned FCS-free culture solution supplemented with 10% FCS (FCS-supplemented culture solution containing Rho activator) and an FCS-free culture solution, the group cultured in the FCS-free culture solution was divided into 2 groups, and one of them was used as a compound 2 addition group with the addition of 10 μM of compound 2, and the other was used as a compound 2 non-addition group. After further culture for 24 hrs, the level of extension of nerve axon of a retinal ganglion cell was observed under an inverted light microscope. In addition, 1 μM lysophosphatidic acid (LPA), which is a Rho activator, was added to an FCS-free group and axon retraction due to Rho activation was also examined.

retinal ganglion cell [2] = test: In vitro axon length of cultured retinal ganglion cells, Calcein AM image analysis (Example 5); format: cell-based, Wistar rats; conditions: 10 μM final concentration, N=3; for proportion of long neurites cells (axon not less than 100 μm) relative to the whole cells: control group 7%; for proportion of middle neurites cells (axon 21 μm-99 μm) relative to the whole cells: control group 12%
Method: In the same manner as in Examples 1 and 3, retinal ganglion cells isolated from the eye ball of 6 to 8-day-old Wistar rats (male-female mixture, SLC) were cultured (cell count: ca. 2000 cells/well). The test compounds (compounds 3-5) were added to the culture solution to the final concentration of 10 μM and respectively used as compound 3 addition group, compound 4 addition group and compound 5 addition group. The control was a test compound non-addition group. The compound 3 (4-[2-(2,3,4,5,6-pentafluorophenyl)acryloyl]cinnamic acid) was synthesized according to the description of Example 8 of JP-A-2000-44513 and used. As compound 4 (ethacrynic acid), one made by Sigma was used and as compound 5 (fasudil hydrochloride), a commercially-available fasudil hydrochloride hydrate injection: “Eril® Injection 30 mg” (produced and sold by Asahi Kasei Corporation) was used.
Using LIVE/DEAD® Viability/Cytotoxicity Kit (L-3224)(Molecular probes) and utilizing the fluorescence characteristics of viable cells by Calcein AM, Calcein AM was uptaken into the retinal ganglion cells and the level of extension of nerve axon of a retinal ganglion cell was observed under a fluorescence microscope. The images of the retinal extension samples observed under a microscope were directly imported into computer images from the fluorescence microscope and the length of the nerve axon was measured using an image analyzing soft (MacSCOP, MITANI CO.). The cells having an axon of not less than 100 μm in length were taken as long neurites cells, the cells having an axon of 21 μm-99 μm were taken as middle neurites cells, and the cells having an axon of not more than 20 μm in length were taken as short neurites cells (no axonal extension). The proportion (%) of the long neurites cells and middle neurites cells relative to the whole cells was calculated for each.

retinal ganglion cell [3] = test: In vitro extension of nerve axon of cultured retinal ganglion cells (Example 1); format: cell-based, Wistar rat; conditions: then 10 μM compound added, further 24 hrs
Method: Retinal ganglion cells were isolated from an eye ball of a Wistar rat, and cultured in a 48 well plate coated with polylysin (50 μg/mL, Sigma) and merosin (2 μg/mL, GIBCO) at 37° C. under the environment of 5% CO2, 95% air. The number of the cells was about 5000 cells/well. The culture solutions were a culture solution (fetal calf serum-free culture solution) of Neurobasal Medium (GIBCO) supplemented with 50 ng/mL BDNF (human brain-derived neurotrophic factor, Sigma), 50 ng/mL CNTF (rat cilliary neurotrophic factor, Sigma), 5 μM forskolin (Sigma), 1 mM glutamine (Wako) and B27 Supplement (GIBCO; 1 mL/50 mL culture solution), and a culture solution (FCS supplemented culture solution) of the aforementioned fetal calf serum-free culture solution supplemented with 10% fetal calf serum (hereinafter to be also referred to as FCS). After culture for 24 hrs in each culture solution, the group cultured in the FCS supplemented culture solution was divided into 2 groups, and one of them was used as a compound 1 addition group with the addition of 10 μM of compound 1, and the other was used as a compound 1 non-addition group. Similarly, the group cultured in the FCS-free culture solution was divided into a compound 1 addition group and a compound 1 non-addition group. […]

optic nerve cell [4] = test: In vivo optic nerve cell regeneration after optic nerve cut and sciatic nerve autograft (Example 2); parameters: species or system SD rats; conditions: 120 μmol/L, 5 μL into the vitreous body plus gelatin pieces with 10 μmol/L around the autograft, 6 weeks after grafting
Method: The optic nerve of SD rats weighing 220-280 g was cut under pentobarbital sodium (0.4 mg/kg, i.p.) anesthesia. Separately, the sciatic nerve of the optic nerve-severed rat was taken out in about 3-4 cm and autografted at an end of the optic nerve, which had been cut earlier. The compound 1 dissolved to 120 μmol/L was injected into the vitreous body by 5 μL immediately before cutting the optic nerve, and gelatin pieces (3 mm×3 mm; Spongel, Yamanouchi Pharm.) immersed in a 10 μmol/L solution of compound 1 were embedded around the autograft (compound 1 treatment group). For the non-treatment group, physiological saline was used instead of compound 1 for both the injection into the vitreous body and preparation of the gelatin pieces. […] The images of the retinal extension samples observed under a microscope were directly imported into computer images from the fluorescence microscope and the retrogradedly labeled retinal ganglion cells were counted using an image analyzing soft (MacSCOP, MITANI CO.). […]
The ratios (%) of the regenerated cell counts of the non-treatment group and compound 1 treatment group, relative to the optic nerve cell counts of the control, were calculated.

optic nerve cell [5] = test: In vivo optic nerve cell regeneration after optic nerve cut and sciatic nerve autograft (Example 4); parameters: species or system SD rats; conditions: for regenerated optic nerve cell count relative to the control group: control = physiological saline; for regenerated optic nerve cell count relative to the normal group: 5 μL into the vitreous body, 6 weeks after grafting
Method: The optic nerve of SD rats weighing 220-280 g was cut under pentobarbital sodium (0.4 mg/kg, i.p.) anesthesia. Separately, the sciatic nerve of the optic nerve-severed rat was taken out in about 3-4 cm and autografted at an end of the optic nerve, which had been cut-earlier. The compound 2 dissolved to 120 μM was injected into the vitreous body by 5 μL immediately before cutting the optic nerve, and gelatin pieces (3 mm×3 mm; Spongel, Yamanouchi Pharm.) immersed in a 10 μM solution of compound 2 were embedded around the autograft (compound 2 treatment group—1). For compound 2 treatment group—2, the compound 2 dissolved to 1.2 mM was injected into the vitreous body by 5 μL and 100 μM of compound 2 was used around the graft. In the control group, physiological saline was used instead of compound 2. During the grafting, attention was paid to avoid damage to the ophthalmic artery, and after grafting, the retinal vascular network was confirmed with a funduscope before breeding under a temperature 23° C.±2, humidity-55±10% environment. The rats were allowed to have a free access to a feed and water. After 6 weeks from the grafting operation, the graft was transversely cut under pentobarbital sodium (0.4 mg/kg, i.p.) anesthesia, and 4-Di-10ASP [4-(4-didecylaminostyryl)-N-methyl-propidium iodide, Sigma, St. Louis, Mo.] crystal (ca. 2 mg) was embedded in the cut area of the graft, thereby to retrogradely label retinal ganglion cells. […]. The images of the retinal extension samples observed under a microscope were directly imported into computer images from the fluorescence microscope and the retrogradely labeled retinal ganglion cells were counted using an image analyzing soft (MacSCOP, MITANI CO.) (FIG. 4). The obtained number of the retrogradely labeled retinal ganglion cells was taken as indicating the regenerated optic nerve cells. Meanwhile, the optic nerve of the rat free of grafting was cut, 4-Di-10ASP crystal (ca. 2 mg) was embedded similarly, and the number of the labeled retinal ganglion cells of the retinal extension sample was taken as the number of optic nerve cells of the normal group.
The ratios (%) of the regenerated optic nerve cell counts of the control group, compound 2 treatment group—1 and compound 2 treatment group—2, relative to the optical nerve cell counts of the control, were calculated.

In the case of “lysophosphatidic acid [LPA, reference compound]”, the “axon retraction due to Rho activation” value (retinal ganglion cell [1]; FCS-free culture solution 44 hrs, then 1 μM LPA, further 4 hrs) is reported as “axon retraction effect”.
With `C=C(CC)C(=O)c1ccc(OCC(=O)O)c(Cl)c1Cl` [compound 4, ethacrynic acid] the “proportion of long neurites cells (axon not less than 100 μm) relative to the whole cells” value (retinal ganglion cell [2]) was 11% and the “proportion of middle neurites cells (axon 21 μm-99 μm) relative to the whole cells” value (retinal ganglion cell [2]) was 45%.
`O=S(=O)(c1cccc2cnccc12)N1CCCNCC1` [compound 5, fasudil hydrochloride] was tested, and the “proportion of long neurites cells (axon not less than 100 μm) relative to the whole cells” value (retinal ganglion cell [2]) was 15% and the “proportion of middle neurites cells (axon 21 μm-99 μm) relative to the whole cells” value (retinal ganglion cell [2]) was 53%.
For `C=C(C(=O)c1ccc(C=CC(=O)O)cc1)c1c(F)c(F)c(F)c(F)c1F` [compound 3, 4-[2-(2,3,4,5,6-pentafluorophenyl)acryloyl]cinnamic acid], the “proportion of long neurites cells (axon not less than 100 μm) relative to the whole cells” value (retinal ganglion cell [2]) was 22% and the “proportion of middle neurites cells (axon 21 μm-99 μm) relative to the whole cells” value (retinal ganglion cell [2]) was 23%.
In the case of `C[C@@H](N)c1ccc(C(=O)Nc2ccnc3[nH]ccc23)cc1.C[C@@H](N)c1ccc(C(=O)Nc2ccnc3[nH]ccc23)cc1.Cl.Cl.Cl.Cl.O.O.O` [compound 1, (R)-(+)-N-(1H-pyrrolo[2,3-b]pyridin-4-yl)-4-(1-aminoethyl)benzamide dihydrochloride 3/2 hydrate], the “level of extension of nerve axon of a retinal ganglion cell” value (“level” below) (retinal ganglion cell [3]; FCS-free culture solution 24 hrs) is reported as “the extension of nerve axon became remarkable”, the “level” value (retinal ganglion cell [3]; FCS-supplemented culture solution 24 hrs, versus non-addition group) is reported as “clearly showed a retinal ganglion cell nerve axon extending action” and the “regenerated optic nerve cell count relative to the non-treatment group” value (optic nerve cell [4]) is reported as “about 2.4 times”. For the same compound, the “regenerated optic nerve cell count relative to the control group” value (optic nerve cell [4]; control = rat free of grafting) was “about 12%”.
For `C[C@@H](N)c1ccc(C(=O)Nc2ccnc3[nH]ccc23)cc1.Cl` [compound 2, (R)-(+)-N-(1H-pyrrolo[2,3-b]pyridin-4-yl)-4-(1-aminoethyl)benzamide monohydrochloride], the “level” value (retinal ganglion cell [1]; FCS-free culture solution 24 hrs, then 10 μM compound added, further 24 hrs) was “clearly showed an action of extending the nerve axon of the retinal ganglion cell”, the “regenerated optic nerve cell count relative to the control group” value (optic nerve cell [5]; treatment group-1: 120 μM intravitreal, 10 μM around the autograft) was “about 2.3 times” and the “regenerated optic nerve cell count relative to the normal group” value (optic nerve cell [5]; treatment group-1: 120 μM, 10 μM gelatin pieces around the autograft) was “about 16%”. For the same compound, the “regenerated optic nerve cell count relative to the control group” value (optic nerve cell [5]; treatment group-2: 1.2 mM intravitreal, 100 μM around the graft) was “about 4 times” and the “regenerated optic nerve cell count relative to the normal group” value (optic nerve cell [5]; treatment group-2: 1.2 mM, 100 μM around the graft) was “about 28%”.
